This is an account of results in PubChem BioAssay AID328 (DTP/NCI, 2004).

Values joined by “and” are separate entries in the source; they are usually repeats but may differ in a detail not shown here. Equal entries are not always repeated. Inconclusive results and toxic doses are left out.

The test system of the assay is BDF1 mice, P388 leukemia ip, median survival T/C. The assay is described as follows: NCI In Vivo Anticancer Drug Screen. Data for tumor model P388 Leukemia (intraperitoneal) in B6D2F1 (BDF1) mice. To be noted: endpoint: median survival time, higher = longer survival. In short, it runs like this: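 Reported as T/C, where T is the survival measurement in dosed animals and C the same measurement in vehicle controls.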

Setting [1] is: dose: 100.0 mg/kg/injection, schedule: Q01DX009 (ip), vehicle: Klucel (hydroxypropylcellulose) (HPC).
Setting [2] is: dose: 100.0 mg/kg/injection, schedule: Q04DX003 (ip), vehicle: Klucel (hydroxypropylcellulose) (HPC).
The mark [3] stands for this setting: dose: 200.0 mg/kg/injection, schedule: Q01DX009 (ip), vehicle: Klucel (hydroxypropylcellulose) (HPC).
Where [4] appears, read: dose: 200.0 mg/kg/injection, schedule: Q04DX003 (ip), vehicle: Klucel (hydroxypropylcellulose) (HPC).
[5] abbreviates: dose: 100.0 mg/kg/injection, schedule: Q04DX003 (ip), vehicle: saline.
Setting [6] is: dose: 200.0 mg/kg/injection, schedule: Q04DX003 (ip), vehicle: saline.
The mark [7] stands for this setting: dose: 400.0 mg/kg/injection, schedule: Q04DX003 (ip), vehicle: saline.
The mark [8] stands for this setting: dose: 25.0 mg/kg/injection, schedule: Q01DX009 (ip), vehicle: saline with Tween-80.
[9] abbreviates: dose: 50.0 mg/kg/injection, schedule: Q01DX009 (ip), vehicle: saline with Tween-80.
Where [10] appears, read: dose: 50.0 mg/kg/injection, schedule: Q01DX009 (ip), vehicle: Klucel (hydroxypropylcellulose) (HPC).
[11] abbreviates: dose: 200.0 mg/kg/injection, schedule: Q04DX003 (ip), vehicle: saline with Tween-80.
The mark [12] stands for this setting: dose: 100.0 mg/kg/injection, schedule: Q04DX003 (ip), vehicle: saline with Tween-80.
Where [13] appears, read: dose: 400.0 mg/kg/injection, schedule: Q04DX003 (ip), vehicle: saline with Tween-80.
[14] abbreviates: dose: 100.0 mg/kg/injection, schedule: Q01DX009 (ip), vehicle: saline with Tween-80.
Setting [15] is: dose: 12.5 mg/kg/injection, schedule: Q01DX009 (ip), vehicle: Klucel (hydroxypropylcellulose) (HPC).
The mark [16] stands for this setting: dose: 25.0 mg/kg/injection, schedule: Q01DX009 (ip), vehicle: saline.
The mark [17] stands for this setting: dose: 50.0 mg/kg/injection, schedule: Q01DX009 (ip), vehicle: saline.

With `NC(=O)Nc1nc(-c2ccccc2)no1`, the T/C under setting [1] was 95 % of control; the T/C under setting [2] is 100 % of control; the T/C under setting [3] was 100 % of control; the T/C under setting [4] is 109 % of control; the T/C (dose: 400.0 mg/kg/injection, schedule: Q01DX009 (ip), vehicle: Klucel (hydroxypropylcellulose) (HPC)) is 90 % of control; the T/C (dose: 400.0 mg/kg/injection, schedule: Q04DX003 (ip), vehicle: Klucel (hydroxypropylcellulose) (HPC)) was 100 % of control.

As to `Nc1ncnc2nc[nH]c12.[Cl][Pt][Cl]`, the T/C is, setting by setting: (dose: 100.0 mg/kg/injection, schedule: Q01DX009 (ip), vehicle: water) 114 % of control; (dose: 100.0 mg/kg/injection, schedule: Q04DX003 (ip), vehicle: water) 93 % of control; (dose: 200.0 mg/kg/injection, schedule: Q01DX009 (ip), vehicle: water) 118 % of control; (dose: 200.0 mg/kg/injection, schedule: Q04DX003 (ip), vehicle: water) 98 % of control; (dose: 400.0 mg/kg/injection, schedule: Q01DX009 (ip), vehicle: water) 104 % of control; (dose: 400.0 mg/kg/injection, schedule: Q04DX003 (ip), vehicle: water) 98 % of control.

Turning to `CCOC(=S)SCc1nc2ccccc2[nH]1`, the T/C under setting [5] was 90 % of control, the T/C under setting [6] was 107 % of control and the T/C under setting [7] was 105 % of control.

With `NC(=O)N/N=C/c1cccs1`, the T/C runs as follows: under setting [8], 97 % of control; under setting [9], 104 % of control.

For `CN(CCCCN(C)CCOS(C)(=O)=O)CCOS(C)(=O)=O`, the T/C was 177 % of control (dose: 0.8 mg/kg/injection, schedule: Q04DX003 (ip), vehicle: saline); 172 % of control (dose: 1.2 mg/kg/injection, schedule: Q04DX003 (ip), vehicle: saline); 154 % of control (dose: 1.8 mg/kg/injection, schedule: Q04DX003 (ip), vehicle: saline).

Consider `CC(C)(O)c1cccc(C(=O)O)c1Sc1ccccc1`, for which the T/C runs as follows: (dose: 100.0 mg/kg/injection, schedule: Q01DX001 (ip), vehicle: saline with Tween-80) 100 % of control; (dose: 200.0 mg/kg/injection, schedule: Q01DX001 (ip), vehicle: saline with Tween-80) 95 % of control; (dose: 400.0 mg/kg/injection, schedule: Q01DX001 (ip), vehicle: saline with Tween-80) 101 % of control.

On to `O=[N+]([O-])c1cccnc1Cl`, for which the T/C under setting [10] was 91 % of control; the T/C under setting [1] is 100 % of control; the T/C under setting [2] was 104 % of control; the T/C under setting [3] was 91 % of control; the T/C under setting [4] was 100 % of control.

Turning to `COc1cc(C=Nc2cc(Cl)cc(Cl)c2)ccc1N(CCCl)CCCl`, the T/C is 163 % of control (dose: 132.0 mg/kg/injection, schedule: Q04DX003 (ip), vehicle: saline with Tween-80); 177 % of control under setting [11]; 177 % of control (dose: 300.0 mg/kg/injection, schedule: Q04DX003 (ip), vehicle: saline with Tween-80).

As for `Nc1ccccc1CCCC(=O)O`, the T/C is 100 % of control under setting [5], 100 % of control under setting [6] and 104 % of control under setting [7].

As to `Cc1cccc2c(N3CCOCC3)c3c(nc12)CCCCC3`, the T/C was 105 % of control under setting [12], 95 % of control under setting [11] and 100 % of control under setting [13].

Regarding `COC(=O)c1c(Cl)c(Cl)c(C(=O)OC)c(Cl)c1Cl`, the T/C runs as follows: under setting [8], 100 % of control; under setting [9], 100 % of control; under setting [14], 86 % of control; under setting [12], 91 % of control; under setting [11], 108 % of control; (dose: 266.0 mg/kg/injection, schedule: Q04DX003 (ip), vehicle: saline with Tween-80) 95 % of control. The T/C is 90 % of control under setting [13] and 100 % of control (dose: 600.0 mg/kg/injection, schedule: Q04DX003 (ip), vehicle: saline with Tween-80).

Regarding `Nc1[nH]c(=S)[nH]c(=O)c1N`, the T/C reads like this: (dose: 75.0 mg/kg/injection, schedule: Q01DX009 (ip), vehicle: Klucel (hydroxypropylcellulose) (HPC)) 115 % of control; (dose: 100.0 mg/kg/injection, schedule: Q01DX001 (ip), vehicle: Klucel (hydroxypropylcellulose) (HPC)) 95 % of control; (dose: 200.0 mg/kg/injection, schedule: Q01DX001 (ip), vehicle: Klucel (hydroxypropylcellulose) (HPC)) 95 % of control.

As for `CCOCCOC(=O)Nc1ccc(C)c(NC(=O)OCCOCC)c1`, the T/C reads like this: under setting [9], 93 % of control; under setting [14], 90 % of control; (dose: 200.0 mg/kg/injection, schedule: Q01DX009 (ip), vehicle: saline with Tween-80) 100 % of control.

In the case of `C#CCOC(=O)NCCC`, the T/C is 110 % of control under setting [10]; 95 % of control (dose: 50.0 mg/kg/injection, schedule: Q04DX003 (ip), vehicle: Klucel (hydroxypropylcellulose) (HPC)); 105 % of control under setting [1]; 104 % of control under setting [2]; 115 % of control under setting [3]; 104 % of control under setting [4].

On to `C1=CC2(OCCO2)C2CC=CC3(OCCO3)C2C1` (stereo not given), for which the T/C runs as follows: under setting [15], 114 % of control; (dose: 25.0 mg/kg/injection, schedule: Q01DX009 (ip), vehicle: Klucel (hydroxypropylcellulose) (HPC)) 110 % of control and 123 % of control; under setting [3], 117 % of control.

For `NOCc1ccsn1`, the T/C was 95 % of control (dose: 200.0 mg/kg/injection, schedule: Q04DX003 (ip), vehicle: other) and 90 % of control (dose: 400.0 mg/kg/injection, schedule: Q04DX003 (ip), vehicle: other).

Take `Cc1c[n+]2ccccc2n1C`: the T/C under setting [16] is 100 % of control and the T/C under setting [17] is 104 % of control.

For the compound `N#CSCc1ccc(Cl)c(CSC#N)c1`, the T/C reads like this: (dose: 8.0 mg/kg/injection, schedule: Q01DX009 (ip), vehicle: Klucel (hydroxypropylcellulose) (HPC)) 110 % of control; (dose: 12.0 mg/kg/injection, schedule: Q01DX009 (ip), vehicle: Klucel (hydroxypropylcellulose) (HPC)) 117 % of control; under setting [15], 160 % of control; (dose: 16.5 mg/kg/injection, schedule: Q04DX003 (ip), vehicle: Klucel (hydroxypropylcellulose) (HPC)) 115 % of control; (dose: 25.0 mg/kg/injection, schedule: Q04DX003 (ip), vehicle: Klucel (hydroxypropylcellulose) (HPC)) 115 % of control; (dose: 37.0 mg/kg/injection, schedule: Q04DX003 (ip), vehicle: Klucel (hydroxypropylcellulose) (HPC)) 123 % of control.

In the case of `CC1(C)N=C(N)N=C(N)N1c1ccc(F)c(C(F)(F)F)c1`, the T/C was 120 % of control (dose: 3.12 mg/kg/injection, schedule: Q01DX009 (ip), vehicle: saline); 169 % of control and 189 % of control (dose: 12.5 mg/kg/injection, schedule: Q01DX009 (ip), vehicle: saline); 216 % of control (dose: 16.0 mg/kg/injection, schedule: Q01DX009 (ip), vehicle: saline); 245 % of control and 87 % of control and 191 % of control under setting [16]; 216 % of control under setting [17].
